Measurements as given in US20200187499A1, “SUBSTITUTED BENZYL-4-AMINOPICOLINIC ESTERS AND PYRIMIDINO-4-CARBOXYLIC ESTERS, METHODS FOR THE PRODUCTION THEREOF, AND USE THEREOF AS HERBICIDES AND PLANT GROWTH REGULATORS” (Bayer CropScience Aktiengesellschaft, priority 2017, published 2020).

Legend:
Format in all cases: in vivo
[1] = system: SETVI; assay: Post-emergence herbicidal action; details: 320 g/ha, assessed after about 3 weeks
Description: (§1) Seeds of monocotyledonous and dicotyledonous weed and crop plants are laid out in sandy loam soil in wood-fiber pots, covered with soil and cultivated in a greenhouse under good growth conditions. 2 to 3 weeks after sowing, the test plants are treated at the one-leaf stage. The compounds of the invention, formulated in the form of wettable powders (WP) or as emulsion concentrates (EC), are then sprayed onto the green parts of the plants in the form of an aqueous suspension or emulsion at a water application rate equating to 600 to 800 l/ha, with addition of 0.2% wetting agent. After the test plants have been left to stand in the greenhouse under optimal growth conditions for about 3 weeks, the action of the preparations is assessed visually in comparison to untreated controls (herbicidal action in percent (%): 100% activity=the plants have died, 0% activity=like control plants). […] At the same time, inventive compounds leave Gramineae crops such as barley, wheat, rye, millet/sorghum, corn or rice virtually undamaged when applied post-emergence, even at high active ingredient dosages. In addition, some substances are also harmless to dicotyledonous crops such as soya, cotton, oilseed rape, sugar beet or potatoes. Some of the compounds according to the invention have high selectivity and are therefore suitable for controlling unwanted vegetation in agricultural crops by the post-emergence method. The tables below illustrate, in an exemplary manner, the post-emergence herbicidal action of the compounds according to the invention, the herbicidal activity being stated in percent.

[2] = system: AMARE; assay: Post-emergence herbicidal action; details: 320 g/ha, assessed after about 3 weeks
Description: as §1

[3] = system: STEME; assay: Post-emergence herbicidal action; details: Table 6, post-emergence (PO), 320 g/ha, assessed after about 3 weeks
Description: as §1

[4] = system: ABUTH; assay: Post-emergence herbicidal action; details: 320 g/ha, assessed after about 3 weeks
Description: as §1

[5] = system: SETVI; assay: Pre-emergence herbicidal action; details: Table 3, pre-emergence (PE), 320 g/ha, scored after 3 weeks
Description: (§2) Seeds of monocotyledonous and dicotyledonous weed plants and crop plants are laid out in sandy loam soil in wood-fiber pots and covered with soil. The compounds of the invention, formulated in the form of wettable powders (WP) or as emulsion concentrates (EC), are then applied to the surface of the covering soil in the form of an aqueous suspension or emulsion at a water application rate equating to 600 to 800 I/ha, with addition of 0.2% wetting agent. After the treatment, the pots are placed in a greenhouse and kept under good growth conditions for the trial plants. The damage to the test plants is scored visually after a test period of 3 weeks by comparison with untreated controls (herbicidal activity in percent (%): 100% activity=the plants have died, 0% activity=like control plants).
(§3) At the same time, inventive compounds leave Gramineae crops such as barley, wheat, rye, millet/sorghum, corn or rice virtually undamaged when applied pre-emergence, even at high active ingredient dosages. In addition, some substances are also harmless to dicotyledonous crops such as soya, cotton, oilseed rape, sugar beet or potatoes. […] The tables below illustrate, in an exemplary manner, the pre-emergence herbicidal action of the compounds according to the invention, the herbicidal activity being stated in percent.

[6] = system: ECHCG; assay: Pre-emergence herbicidal action; details: 320 g/ha, scored after 3 weeks
Description: as §2, §3

[7] = system: AMARE; assay: Pre-emergence herbicidal action; details: 320 g/ha, scored after 3 weeks
Description: as §2, §3

[8] = system: ALOMY; assay: Pre-emergence herbicidal action; details: Table 3, pre-emergence (PE), 320 g/ha, scored after 3 weeks
Description: as §2, §3

[9] = system: ABUTH; assay: Pre-emergence herbicidal action; details: Table 3, pre-emergence (PE), 320 g/ha, scored after 3 weeks
Description: as §2, §3

[10] = system: ECHCG; assay: Post-emergence herbicidal action; details: 320 g/ha, assessed after about 3 weeks
Description: as §1

| SMILES | Herbicidal action against SETVI ([1]; Table 6, post-emergence (PO)) | Herbicidal action against AMARE ([2]; Table 6, post-emergence (PO)) | Herbicidal action against STEME [3] | Herbicidal action against ABUTH ([4]; Table 6, post-emergence (PO)) | Herbicidal action against SETVI [5] | Herbicidal action against ECHCG ([6]; Table 3, pre-emergence (PE)) | Herbicidal action against AMARE ([7]; Table 3, pre-emergence (PE)) | Herbicidal action against ALOMY [8] | Herbicidal action against ABUTH [9] | Herbicidal action against SETVI ([1]; Table 7, post-emergence (PO)) | Herbicidal action against SETVI ([1]; Table 8, post-emergence (PO)) | Herbicidal action against ECHCG ([10]; Table 7, post-emergence (PO)) | Herbicidal action against ECHCG ([10]; Table 8, post-emergence (PO)) | Herbicidal action against AMARE ([2]; Table 7, post-emergence (PO)) | Herbicidal action against AMARE ([2]; Table 8, post-emergence (PO)) | Herbicidal action against ABUTH ([4]; Table 7, post-emergence (PO)) | Herbicidal action against ABUTH ([4]; Table 8, post-emergence (PO)) | Herbicidal action against ECHCG ([6]; Table 4, pre-emergence (PE)) | Herbicidal action against AMARE ([7]; Table 4, pre-emergence (PE)) | also measured |
| --- | --- | --- | --- | --- | --- | --- | --- | --- | --- | --- | --- | --- | --- | --- | --- | --- | --- | --- | --- | --- |
| Nc1cc(-c2ccc3occc3c2)nc(C(=O)OCc2ccc(Cl)cc2)c1Cl [Example I-31] | 90% | 100% | 100% | 100% | 50% | 30% | 90% | 20% | 30% | – | – | – | – | – | – | – | – | – | – | – |
| Nc1cc(-c2ccc3ccsc3c2)nc(C(=O)OCc2c(F)c(F)c(F)c(F)c2F)c1Cl [Example I-25] | 100% | 100% | 100% | 90% | 80% | 70% | 100% | 60% | 0% | – | – | – | – | – | – | – | – | – | – | – |
| Nc1cc(-c2ccc3ncsc3c2)nc(C(=O)OCc2cccc(Cl)c2)c1Cl [Example I-60] | – | – | – | – | – | – | – | – | – | 80% | 80% | 90% | 90% | 80% | 80% | 90% | 90% | – | – | – |
| Nc1cc(-c2ccc3ccoc3c2)nc(C(=O)OCc2ccc(Cl)cc2)c1Cl [Example I-30] | 90% | 100% | 100% | 90% | 90% | 100% | 100% | 40% | 20% | – | – | – | – | – | – | – | – | – | – | – |
| Nc1cc(-c2ccc3ccoc3c2)nc(C(=O)OCc2ccc(F)cc2F)c1Cl [Example I-43] | – | – | – | – | – | – | – | – | – | 90% | 90% | 80% | 80% | 100% | 100% | 90% | 90% | 0% | 100% | – |
| Nc1c(F)c(-c2ccc3ccoc3c2)nc(C(=O)OCc2ccc(Cl)cc2)c1Cl [Example I-15] | 80% | 100% | 80% | 100% | 0% | 30% | 100% | 0% | 90% | – | – | – | – | – | – | – | – | – | – | – |
| Nc1cc(-c2ccc3occc3c2)nc(C(=O)OCc2cccc(C(F)(F)F)c2)c1Cl [Example I-11] | 90% | 100% | 100% | 100% | 100% | 80% | 100% | 80% | 20% | – | – | – | – | – | – | – | – | – | – | – |
| Nc1c(F)c(-c2ccc3ccsc3c2)nc(C(=O)OCc2ccc(F)cc2F)c1Cl [Example I-42] | 20% | 90% | 80% | 80% | 20% | 40% | 100% | 30% | 0% | – | – | – | – | – | – | – | – | – | – | – |
| Nc1cc(-c2ccc3ncsc3c2)nc(C(=O)OCc2ccc(Cl)cc2)c1Cl [Example I-69] | – | – | – | – | – | – | – | – | – | 80% | 80% | 90% | 90% | 100% | 100% | 90% | 90% | – | – | – |
| Nc1cc(-c2ccc3ccsc3c2)nc(C(=O)OCc2cccc(Cl)c2)c1Cl [Example I-50] | – | – | – | – | – | – | – | – | – | 40% | 40% | 90% | 90% | 100% | 100% | 90% | 90% | 70% | 80% | – |
| Nc1cc(-c2ccc3ccsc3c2)nc(C(=O)OCc2c(F)cc(F)cc2F)c1Cl [Example I-32] | – | – | – | – | 80% | 80% | 100% | 70% | 30% | – | – | – | – | – | – | – | – | – | – | Herbicidal action against AMARE ([2]; Table 9, post-emergence (PO)): 100%; Herbicidal action against ABUTH ([4]; Table 9, post-emergence (PO)): 90% |
| Nc1cc(-c2ccc3ccoc3c2)nc(C(=O)OCc2c(F)c(F)c(F)c(F)c2F)c1Cl [Example I-54] | – | – | – | – | – | – | – | – | – | 80% | 80% | 80% | 80% | 100% | 100% | 80% | 80% | 0% | 80% | – |
| COc1c(F)ccc(COC(=O)c2nc(-c3ccc4occc4c3)cc(N)c2Cl)c1F [Example I-17] | – | – | – | – | – | – | – | – | – | 100% | 100% | 90% | 90% | 100% | 100% | 90% | 90% | 90% | 100% | – |
